Patent publication US20120172306A1, “Use of HASF as a Protective Agent Against Ischemic Tissue Damage” (Duke University, priority 2009, published 2012)

What was measured:
[1] = test system: adult rat cardiomyocytes; test: Caspase-Glo 9 and 3/7 assays of H2O2 induced apoptosis; format: cell-based; conditions: 3 μM inhibitor 30 min, 100 nM HASF 30 min, 200 μM H2O2 3 hours
Description: FIGS. 2B and 2C are bar graphs showing relative caspase activity. Adult rat cardiomyocytes were freshly isolated and treated ±10 nM of HASF for 30 min, and then challenged with 100 μM of H2O2 for various time points. H2O2 induced apoptosis in cardiomyocytes was evidenced by the dynamic increase in the activities of the initiator Caspase 9 and effector Caspase […] at 5 h, 7 h and 9 h respectively. Y axis represent the relative amount of luminescence indicating the relative amount of active Caspase activities. ** P<0.01 and *** P<0.001. Data are presented as means±standard deviation of triplicates.
FIG. 3C is a bar graph showing fold-change in caspase activity. Serum-starved adult rat cardiomyocytes were treated with 3 μM PKC inhibitors or vehicle DMSO for 30 minutes, then 100 nM HASF recombinant protein was added for 30 minutes followed by treatment with 200 μM H2O2 for 3 hours. Apoptosis was determined by detection of Caspase-9 activity using a homogeneous luminescent assay. All samples were measured in triplicates. *P<0.05 vs. non-HASF treated cells.
FIG. 4C is a bar graph showing relative caspase activity in adult cardiomyocytes. Apoptosis as determined by detection of Caspase-9 activity on adult rat cardiomyocytes pre-treated with 178 μM PKC translocation inhibitor peptide for 10 minutes and then with 100 nM of HASF for 30 minutes. Thereafter, cells were challenged with 200 μM H2O2 for 3 hours. All samples were measured in triplicates. *P <0.05 vs. non-HASF treated cells and the experiment was repeated multiple times.
Adult rat ventricular cardiomyocytes were isolated from 6 weeks old female Sprague-Dawley rat (Harlan World Headquarters, Indianapolis, Ill., USA) hearts by enzymatic digestion and were seeded in (6-well) plates or Delta T culture dishes (Bioptechs, Inc., Pa.) pre-coated with 1 μg/cm2 of laminin (Sigma) at 5×10^4/well and cultured overnight in serum-free M199 medium (Sigma), supplemented with 2 mM of L-carnitine, 5 mM of creatine, 5 mM of taurine, 0.2% of albumin, 100 U/ml of penicillin and 100 μg/ml of streptomycin. […]

[2] = test system: PKC, Raf, ERK 1/2, PDK1 phosphorylation in adult rat cardiomyocytes; test: Western blot analysis of signaling protein phosphorylation (PKC/ERK pathway); format: cell-based; conditions: 3 μM inhibitor 30 min, then 100 nM HASF 5-10 min
Description: FIG. 3A is a photograph of an electrophoretic gel. HASF activates the PKC pathway. A. Western blots analysis for various signaling proteins. Serum-starved adult rat cardiomyocytes were stimulated with 100 nM HASF recombinant protein for various time courses. Cell lysate was collected and the proteins were resolved by SDS-PAGE. Insulin from bovine pancreas was used as a positive control. min: minutes of treatment.
FIG. 3B is a photograph of an immunoblot. Serum-starved adult rat cardiomyocytes were pre-treated with 3 μM PKC inhibitors BIM, Gö6976, or Gö6983 for 30 minutes, then stimulated with 100 nM HASF recombinant protein for 5-10 min and cells were harvested. Total cell lysates were used to analyze the levels of ERK1/2 phosphorylation by western blot analysis.
FIG. 4A is a photograph of an immunoblot. Western blot analysis for PKC E and PKC delta phosphorylation on total cell lysates from serum-starved adult rat cardiomyocytes stimulated with 100 nM HASF recombinant protein at 5 and 30 min. HASF b1 and b2 represent different batches of recombinant protein. PMA was used as positive control.
FIG. 4B is a photograph of an immunoblot. Western blot analysis for ERK1/2 phosphorylation on total cell lysates from adult rat cardiomyocytes pre-treated with 10 pM PKC epsilon translocation inhibitor peptide for 20 min, then 100 nM HASF recombinant protein was added for 5 min or 10 min.
FIGS. 8A-B are photographs of immunoblots. Western blot analysis for PKC a/b and PKC theta phosphorylation on total cell lysates from serum-starved adult rat cardiomyocytes stimulated with 100 nM HASF recombinant protein for the indicated times. HASF batch 1 and 2 represent different batches of recombinant protein. PMA was used as positive control.
Rabbit polyclonal antibodies for phospho-pan PKC, phospho-ERK1/2, phospho-raf, phosphor-PDK1, total Akt were obtained from Cell Signaling Tech. Rabbit polyclonal antibody for phospho-PKC epsilon, phospho-Bad, and GAPDH was obtained from Abeam. HRP-conjugated goat anti-rabbit secondary antibody was obtained from Cell Signaling Tech.

CN(C)CCCn1cc(C2=C(c3c[nH]c4ccccc34)C(=O)NC2=O)c2ccccc21.Cl [BIM, Bisindolylmalemide Hydrochloride, reference compound]
effect of PKC inhibitor on protective effects of HASF (Caspase-9 activity) [1]: abolished the protective effects
effect of PKC inhibitor on HASF-mediated ERK1/2 phosphorylation [2]: abolished
